Data reported in US20110281944A1, “METHOD OF A RHEIN COMPOUND FOR INHIBITING PANCREATIC ISLET BETA-CELL DYSFUNCTION AND PREVENTING OR TREATING A PANCREATIC ISLET BETA-CELL DYSFUNCTION RELATED DISORDER” (Research Institute of Nephrology of Nanjing PLA, China, priority 2010, published 2011).
“Also recorded” adds a separate entry of the source.

Legend:
[1] = test system: pancreatic islet β-cells of obese rats; test: Insulin expression in pancreatic islets of obese rats; assay type: in vivo, Wistar rats; settings: rhein for 4 weeks, vs obese control group
Excerpt: Experimental animals: Insulin-resistant obese rats are 4-week in-bred female Wistar rats induced by feeding with high-sugar high-fat feedstuff (20% sugar, 10% lard, 2.5% cholesterol, 1% cholic acid and 66.5% normal feedstuff) for 3 weeks.
Administration to the experimental animals: Thirty insulin-resistant obese rats are randomly assigned to treatment group and control group. Additional fifteen normal Wistar rats of 7 week old are used as normal control group. The treatment group of insulin-resistant obese rats is treated with rhein (100 mg/Kg, dissolved in 0.1% cellulose sodium) by gavage for continuous 4 weeks. The insulin-resistant obese control group and the normal control group are administrated with 0.1% cellulose sodium by gavage.

[2] = test system: pancreatic islets of type 2 diabetic db/db mice; test: Pancreatic islet isolation and perfusion, first phase insulin secretion; assay type: ex vivo
Protocol: The agents and animals used in this example are the same as those used in example 1.
Experimental methods: After 8 weeks of administration, 5 mice are randomly selected from each group for pancreatic islet isolation and perfusion as follows. After anesthesia, the opening of common bile duct at duodenal papilla for each animal is clamped in vivo. 2 ml IV type collagenase is injected at the concentration of 1 mg/ml after performing common bile duct puncture under a stereoscopic microscope. After entering the pancreatic duct reversely to expand the pancreas, the pancreas is rapidly removed. The pancreas is placed in Hank's buffer containing 1 mg/ml collagenase and digested for 40 min to remove the collagens, and then washed under vibration for several times. Pancreatic islets are successfully isolated under microscopy. The pancreatic islets are incubated in a CO2 incubator for 2 hour with 50 islets per group, and then the islets are placed into a specially manufactured constant-temperature perfusion equipment. The […] are perfused with 2.8 mM glucose using a Harvard micro-pump at 0.5 ml/min for glucose starvation perfusion, and after 30 min, perfusion of high glucose (16.7 Mm) is performed at 1 ml/min. […] The first phase insulin secretion and dynamic secretion level of insulin are reflected from the curve of insulin levels measured.

## O=C(O)c1cc(O)c2c(c1)C(=O)c1cccc(O)c1C2=O [rhein]
[1]
  insulin expression level in the islets: significantly improves the insulin expression level in the islets
[2]; islets of rhein-treated db/db mice, high glucose 16.7 mmol/L for 1 min
  insulin level after high glucose stimulation relative to basal level: 7 times as high as basal level
[2]; type 2 diabetic db/db mice, pancreatic islet perfusion
  first phase insulin secretion: significantly improves the first phase insulin secretion; also recorded: increases the first phase insulin secretion
